Here are results for two compounds from PMC8881610 (Nature Communications, 2022).

Structures are written as SMILES.

Assay [1] addresses GLP-1R (Homo sapiens, UniProt P43220, W39A). In words: cAMP accumulation assay, GLP-1R WT, mutant or modified constructs. The format is cell-based. Particulars: HEK-293T, GLP-1R W39A; HEK293T. More on the design: Flag; expressed in transfected cells; host or cells: HEK293T. Put shortly: (§1)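 HEK293T cells transiently expressing wild-type, mutant or modified human GLP-1R (HA signal peptide constructs) were used. Cells were stimulated with peptide agonists for 40 min at room temperature in HBSS with 0.5 mM IBMX and 0.1% BSA or casein. cAMP was quantified by LANCE Ultra TR-FRET (620/650 nm).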
Background: cAMP levels reflect the balance of adenylyl cyclase and phosphodiesterase activity.

For assay [2], the target named is GLP-1R (Homo sapiens, UniProt P43220, Q210A). The assay is described as above. Format: cell-based. Also on record: Flag; expressed in transfected cells; host or cells: HEK293T. The settings on record: GLP-1R Q210A, HEK293T. In outline:
as §1

Assay [3] addresses GLP-1R (Homo sapiens, UniProt P43220, D198A). The assay is described as above. The format is cell-based. More on the design: Flag; expressed in transfected cells; host or cells: HEK293T. Particulars: GLP-1R D198A, HEK293T. Put shortly: as §1
For assay [4], the target named is GLP-1R (Homo sapiens, UniProt P43220, D198A/K202A/Y145A). Described as above. The format is cell-based. More on the design: Flag; expressed in transfected cells; host or cells: HEK293T. The settings on record: GLP-1R Y145A/D198A/K202A, HEK293T. Put shortly:
as §1

For assay [5], the target named is GLP-1R (Homo sapiens, UniProt P43220, R134A). The assay is described as above. The settings on record: GLP-1R R134A, HEK293T. More on the design: Flag; expressed in transfected cells; host or cells: HEK293T. The format is cell-based. In outline: as §1
GLP-1R (Homo sapiens, UniProt P43220, R134A), sequence (P43220 24-463 R134A): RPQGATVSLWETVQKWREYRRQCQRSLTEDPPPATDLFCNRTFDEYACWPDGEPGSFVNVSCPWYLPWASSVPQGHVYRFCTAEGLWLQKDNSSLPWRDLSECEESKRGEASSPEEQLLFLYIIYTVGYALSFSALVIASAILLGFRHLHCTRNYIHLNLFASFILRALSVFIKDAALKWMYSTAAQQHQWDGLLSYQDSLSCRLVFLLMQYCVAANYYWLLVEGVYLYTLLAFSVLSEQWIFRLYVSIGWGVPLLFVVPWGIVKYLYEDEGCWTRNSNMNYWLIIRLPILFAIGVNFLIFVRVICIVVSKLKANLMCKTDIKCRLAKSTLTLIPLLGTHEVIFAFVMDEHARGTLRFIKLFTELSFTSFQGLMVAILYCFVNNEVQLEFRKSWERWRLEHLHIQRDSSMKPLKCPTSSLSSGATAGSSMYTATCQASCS
The next assay concerns the target T1, GIPR (Homo sapiens, UniProt P48546, Y145A).
T1 construct: acylated tirzepatide to the full-length or modified; Flag; expressed in transfected cells
As to the kind of experiment: Whole-cell binding assay, competition with 125I-GIP1-42. Particulars: GIPR Y145A; CHO-K1. The procedure:
Human embryonic kidney 293 cells containing SV40 large T-antigen (HEK293T) were cultured in DMEM (Gibco) supplemented with 10% (v/v) fetal bovine serum (FBS, Gibco), 1 mM sodium pyruvate (Gibco) and 100 units/mL penicillin and 100 μg/mL streptomycin at 37 °C in 5% CO2. Chinese hamster ovary (CHO-K1) cells were cultured in F-12 (Gibco) containing 10% FBS, 100 units/mL penicillin and 100 μg/mL streptomycin at 37 °C in 5% CO2. For cAMP and receptor expression assays, HEK293T cells were seeded into 6-well cell culture plates at a density of 7 × 10^5 cells per well. After overnight incubation, cells were transfected with GIPR, GLP-1R or GCGR construct using Lipofectamine 2000 or Lipofectamine 3000 transfection reagent (Invitrogen). For whole-cell binding assay, CHO-K1 cells were seeded into 96-well fibronectin-treated cell culture plates at a density of 3 × 10^4 cells per well. […] Following 24 h culturing, the transfected cells were ready for use.
For GIPR, CHO-K1 cells were cultured in F-12 medium with 10% FBS and seeded at a density of 30,000 cells/well in Isoplate-96 plates (PerkinElmer). […] Fifty µL of scintillation cocktail (OptiPhase SuperMix, PerkinElmer) were added and the plates were subsequently counted for radioactivity (counts per minute, CPM) in a MicroBeta^2 microplate counter (PerkinElmer).

Setting [6] is: read-out: cAMP pEC50 (converted).

GLP-1R (Homo sapiens, UniProt P43220, D198A), sequence (P43220 24-463 D198A): as the sequence (P43220 24-463 R134A) above, with A111R, D175A counted along it
GLP-1R (Homo sapiens, UniProt P43220, D198A/K202A/Y145A), sequence (P43220 24-463 Y145A/D198A/K202A): as the sequence (P43220 24-463 R134A) above, with A111R, Y122A, D175A, K179A counted along it
GLP-1R (Homo sapiens, UniProt P43220, Q210A), sequence (P43220 24-463 Q210A): as the sequence (P43220 24-463 R134A) above, with A111R, Q187A counted along it
T1 sequence (P48546 22-466 Y145A): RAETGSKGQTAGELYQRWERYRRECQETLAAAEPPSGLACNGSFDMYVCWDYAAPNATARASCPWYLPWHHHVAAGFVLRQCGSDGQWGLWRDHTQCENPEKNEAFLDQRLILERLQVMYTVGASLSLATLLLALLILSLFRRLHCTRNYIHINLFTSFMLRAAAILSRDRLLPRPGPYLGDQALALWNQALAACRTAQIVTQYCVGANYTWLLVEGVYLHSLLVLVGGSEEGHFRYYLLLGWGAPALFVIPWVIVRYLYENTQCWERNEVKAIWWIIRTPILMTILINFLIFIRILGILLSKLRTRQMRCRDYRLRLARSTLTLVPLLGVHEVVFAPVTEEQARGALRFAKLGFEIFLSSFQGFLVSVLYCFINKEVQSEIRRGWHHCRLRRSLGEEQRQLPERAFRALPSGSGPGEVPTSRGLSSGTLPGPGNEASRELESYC
GLP-1R (Homo sapiens, UniProt P43220, W39A), sequence (P43220 24-463 W39A): as the sequence (P43220 24-463 R134A) above, with W16A, A111R counted along it

With `CCCCCCCCCCCCCCCC(=O)N[C@@H](CCC(=O)NCCCC[C@H](NC(=O)[C@H](CC(=O)O)NC(=O)[C@H](CO)NC(=O)[C@@H](NC(=O)[C@H](Cc1ccccc1)NC(=O)[C@@H](NC(=O)CNC(=O)[C@H](CCC(N)=O)NC(=O)C(C)(C)NC(=O)[C@@H](N)Cc1c[nH]cn1)[C@@H](C)O)[C@@H](C)O)C(=O)N[C@@H](CO)C(=O)N[C@@H](CCCCN)C(=O)N[C@@H](Cc1ccc(O)cc1)C(=O)N[C@@H](CC(C)C)C(=O)N[C@@H](CC(=O)O)C(=O)N[C@@H](CCC(=O)O)C(=O)N[C@@H](CCCNC(=N)N)C(=O)N[C@@H](C)C(=O)N[C@@H](C)C(=O)N[C@@H](CCC(N)=O)C(=O)N[C@@H](CC(=O)O)C(=O)N[C@@H](Cc1ccccc1)C(=O)N[C@H](C(=O)N[C@@H](CCC(N)=O)C(=O)N[C@@H](Cc1c[nH]c2ccccc12)C(=O)N[C@@H](CC(C)C)C(=O)N[C@@H](CC(C)C)C(=O)N[C@@H](CC(=O)O)C(=O)NCC(=O)NCC(=O)N1CCC[C@H]1C(=O)N[C@@H](CO)C(=O)N[C@@H](CO)C(=O)NCC(=O)N[C@@H](C)C(=O)N1CCC[C@H]1C(=O)N1CCC[C@H]1C(=O)N1CCC[C@H]1C(=O)N[C@@H](CO)C(N)=O)C(C)C)C(=O)O` [Peptide 20], the Emax (as a rule, the maximal effect, on the per cent scale that the assay sets) at GLP-1R [1] worked out at 100 ± 1.04%; on GLP-1R [2] (HEK-293T), 102 ± 1.27%; on GLP-1R [3] (HEK-293T), 99.9 ± 1.82%; at GLP-1R [4] (HEK-293T), 99.9 ± 1.67%; on GLP-1R [5] (HEK-293T), 101 ± 1.08%. Also, the EC50 was 5.62 pM on GLP-1R [2] (setting [6]), 4.47 pM on GLP-1R [3] (setting [6]), 38.9 pM on GLP-1R [4] (setting [6]) and 6.61 pM on GLP-1R [5] (setting [6]).

As to `CC[C@H](C)[C@H](NC(=O)[C@H](CC(C)C)NC(=O)[C@H](Cc1c[nH]c2ccccc12)NC(=O)[C@H](CCC(N)=O)NC(=O)[C@@H](NC(=O)[C@H](Cc1ccccc1)NC(=O)[C@H](C)NC(=O)[C@H](CCCCNC(=O)COCCOCCNC(=O)COCCOCCNC(=O)CC[C@H](NC(=O)CCCCCCCCCCCCCCCCCCC(=O)O)C(=O)O)NC(=O)[C@H](CCC(N)=O)NC(=O)[C@H](C)NC(=O)[C@@H](NC(=O)[C@H](CCCCN)NC(=O)[C@H](CC(=O)O)NC(=O)[C@H](CC(C)C)NC(=O)C(C)(C)NC(=O)[C@@H](NC(=O)[C@H](CO)NC(=O)[C@H](Cc1ccc(O)cc1)NC(=O)[C@H](CC(=O)O)NC(=O)[C@H](CO)NC(=O)[C@@H](NC(=O)[C@H](Cc1ccccc1)NC(=O)[C@@H](NC(=O)CNC(=O)[C@H](CCC(=O)O)NC(=O)C(C)(C)NC(=O)[C@@H](N)Cc1ccc(O)cc1)[C@@H](C)O)[C@@H](C)O)[C@@H](C)CC)[C@@H](C)CC)C(C)C)C(=O)N[C@@H](C)C(=O)NCC(=O)NCC(=O)N1CCC[C@H]1C(=O)N[C@@H](CO)C(=O)N[C@@H](CO)C(=O)NCC(=O)N[C@@H](C)C(=O)N1CCC[C@H]1C(=O)N1CCC[C@H]1C(=O)N1CCC[C@H]1C(=O)N[C@@H](CO)C(N)=O` [Tirzepatide], on GIPR, the “binding pIC50” value is “N.B”.
